Assay results reported in patent US8399480B2, “Hydroxymethyl pyrrolidines as beta 3 adrenergic receptor agonists” (Merck Sharp & Dohme Corp., priority 2008, dated 2013).

target: T1, human β3 adrenergic receptor (Homo sapiens, UniProt P13945); test: Functional assay: cAMP production (LANCE TR-FRET) in CHO cells stably transfected with cloned β3 adrenergic receptor; format: cell-based; settings: Table 4; human β3 functional activity; read-out: Human β Binding
T1 construct: expressed in transfected cells; host or cells: Chinese hamster ovary (CHO) cells, stably transfected
Method: Chinese hamster ovary (CHO) cells, stably transfected with the cloned β-adrenergic receptor (β1, β2 or β3) are harvested after 3 days of subculturing. Harvesting of cells is done with Enzyme-free Dissociation Media (Specialty Media). Cells are then counted and resuspended in assay buffer (Hank's Balanced salt solution supplemented with 5 mM HEPES, 0.1% BSA) containing a phosphodiesterase inhibitor (IBMX, 0.6 mM). The reaction is initiated by mixing 6,000 cells in 6 μL with 6 μL Alexa Fluor labeled cAMP antibody (LANCE™ kit) which is then added to an assay well containing 12 μL of compound (diluted in assay buffer to 2× final concentration). The reaction proceeds for 30 min at room temperature and is terminated by the addition of 24 μL detection buffer (LANCE™ kit). The assay plate is then incubated for 1 h at room temperature and time-resolved fluorescence measured on a Perkin Elmer Envision reader or equivalent. The unknown cAMP level is determined by comparing fluorescence levels to a cAMP standard curve.
The non-selective, full agonist β-adrenergic ligand isoproterenol is used at all three receptors to determine maximal stimulation. […] Data are analyzed using Microsoft Excel and Graphpad Prism or an internally developed data analysis software package.

T1 sequence (P13945 whole entry): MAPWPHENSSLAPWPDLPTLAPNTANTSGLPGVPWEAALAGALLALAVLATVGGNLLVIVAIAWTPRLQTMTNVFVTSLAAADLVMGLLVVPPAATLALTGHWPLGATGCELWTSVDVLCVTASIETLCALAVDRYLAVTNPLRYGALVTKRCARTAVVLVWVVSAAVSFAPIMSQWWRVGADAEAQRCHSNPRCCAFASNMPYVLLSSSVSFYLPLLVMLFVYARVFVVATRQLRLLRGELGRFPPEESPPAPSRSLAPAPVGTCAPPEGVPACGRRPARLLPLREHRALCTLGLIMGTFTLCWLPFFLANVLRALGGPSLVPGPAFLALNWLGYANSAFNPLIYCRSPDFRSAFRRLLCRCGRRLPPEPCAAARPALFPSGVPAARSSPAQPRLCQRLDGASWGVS

EC50 [µM] | Structure (SMILES)
0.001 to 0.01 | O=C(CN1CCSC1=O)Nc1ccc(C[C@@H]2CC[C@H]([C@H](O)c3ccccc3)N2)cc1 [Example 91]
0.001 to 0.01 | Cc1cn(CC(=O)Nc2ccc(C[C@@H]3CC[C@H]([C@H](O)c4ccccc4)N3)cc2)c(=O)[nH]c1=O [Example 52]
0.011 to 0.1 | O=C(Cc1nnn[nH]1)Nc1ccc(C[C@@H]2CC[C@H]([C@H](O)c3ccccc3)N2)cc1 [Example 75]
1 to 3 | O=C(Cc1ccncc1)Nc1ccc(C[C@@H]2CC[C@H]([C@H](O)c3ccccc3)N2)cc1 [Example 45]
0.011 to 0.1 | O=C(Nc1ccc(C[C@@H]2CC[C@H]([C@H](O)c3ccccc3)N2)cc1)c1ccccc1-c1ncc[nH]1 [Example 12]
0.011 to 0.1 | O=C(Cc1cccc(F)c1F)Nc1ccc(C[C@@H]2CC[C@H]([C@H](O)c3ccccc3)N2)cc1 [Example 72]
0.011 to 0.1 | O=C(Cn1nccn1)Nc1ccc(C[C@@H]2CC[C@H]([C@H](O)c3ccccc3)N2)cc1 [Example 81]
0.001 to 0.01 | O=C(Cn1ncc2ccccc2c1=O)Nc1ccc(C[C@@H]2CC[C@H]([C@H](O)c3ccccc3)N2)cc1 [Example 49]

same assay, conditions: Table 5; read-out: Human β3 Functional

EC50 [µM] | Structure (SMILES)
0.001 to 0.01 | CC(C(=O)Nc1ccc(CC2CCC(C(O)c3ccccc3)N2)cc1)c1ccn(C)n1 (single isomer, unassigned) [Example 187]
0.101 to 1 | Cc1nnc2n1C(C(=O)Nc1ccc(C[C@@H]3CC[C@H]([C@H](O)c4ccccc4)N3)cc1)CC2 (single isomer, unassigned) [Example 127]
0.011 to 0.1 | O=C(Nc1ccc(C[C@@H]2CC[C@H]([C@H](O)c3ccccc3)N2)cc1)C1CCCc2ccnn21 (single isomer, unassigned) [Example 157]
0.011 to 0.1 | O=C(O)c1nc2c(s1)CCC2C(=O)Nc1ccc(C[C@@H]2CC[C@H]([C@H](O)c3ccccc3)N2)cc1 (single isomer, unassigned) [Example 143]
0.101 to 1 | O=C(Nc1ccc(C[C@@H]2CC[C@H]([C@H](O)c3ccccc3)N2)cc1)C1CCc2sc(-c3ccc(F)cc3)nc21 (single isomer, unassigned) [Example 122]
0.011 to 0.1 | COCCC(C(=O)Nc1ccc(C[C@@H]2CC[C@H]([C@H](O)c3ccccc3)N2)cc1)n1cccn1 (single isomer, unassigned) [Example 224]
0.001 to 0.01 | CC(C(=O)Nc1ccc(C[C@@H]2CC[C@H]([C@H](O)c3ccccc3)N2)cc1)n1cnc2ccccc2c1=O (single isomer, unassigned) [Example 166]
0.011 to 0.1 | COc1ncncc1C(C)C(=O)Nc1ccc(C[C@@H]2CC[C@H]([C@H](O)c3ccccc3)N2)cc1 (single isomer, unassigned) [Example 212]
< 0.001 | CC(C(=O)Nc1ccc(C[C@@H]2CC[C@H]([C@H](O)c3ccccc3)N2)cc1)n1cnc2ccccc2c1=O (single isomer, unassigned) [Example 167]
0.001 to 0.01 | CC(C(=O)Nc1ccc(C[C@@H]2CC[C@H]([C@H](O)c3ccccc3)N2)cc1)n1nccn1 (single isomer, unassigned) [Example 178]
0.001 to 0.01 | Cc1nnc2n1CCCC2C(=O)Nc1ccc(C[C@@H]2CC[C@H]([C@H](O)c3ccccc3)N2)cc1 (single isomer, unassigned) [Example 151]
0.001 to 0.01 | Nc1nc2c(s1)CCCC2C(=O)Nc1ccc(C[C@@H]2CC[C@H]([C@H](O)c3ccccc3)N2)cc1 (single isomer, unassigned) [Example 116]
0.101 to 1 | O=C(Nc1ccc(C[C@@H]2CC[C@H]([C@H](O)c3ccccc3)N2)cc1)C1CCc2ccccc2C1 (single isomer, unassigned) [Example 108]
0.011 to 0.1 | CC(C(=O)Nc1ccc(C[C@@H]2CC[C@H]([C@H](O)c3ccccc3)N2)cc1)n1cc(C(N)=O)nn1 (single isomer, unassigned) [Example 193]
0.001 to 0.01 | CC(C(=O)Nc1ccc(C[C@@H]2CC[C@H]([C@H](O)c3ccccc3)N2)cc1)c1nccs1 (single isomer, unassigned) [Example 201]
0.011 to 0.1 | CC(C(=O)Nc1ccc(C[C@@H]2CC[C@H]([C@H](O)c3ccccc3)N2)cc1)n1cc(C(=O)O)nn1 (single isomer, unassigned) [Example 191]
0.101 to 1 | O=C(O)c1nc2c(s1)CCC2C(=O)Nc1ccc(C[C@@H]2CC[C@H]([C@H](O)c3ccccc3)N2)cc1 (single isomer, unassigned) [Example 142]
< 0.001 | C[C@H](C(=O)Nc1ccc(C[C@@H]2CC[C@H]([C@H](O)c3ccccc3)N2)cc1)c1csc(N)n1 [Example 105]
0.001 to 0.01 | CC(C(=O)Nc1ccc(C[C@@H]2CC[C@H]([C@H](O)c3ccccc3)N2)cc1)n1ccnn1 (single isomer, unassigned) [Example 183]
0.001 to 0.01 | O=C(Nc1ccc(C[C@@H]2CC[C@H]([C@H](O)c3ccccc3)N2)cc1)C1CCCc2ccnn21 (single isomer, unassigned) [Example 156]
0.011 to 0.1 | Cc1nnc2n1C(C(=O)Nc1ccc(C[C@@H]3CC[C@H]([C@H](O)c4ccccc4)N3)cc1)CC2 (single isomer, unassigned) [Example 126]
0.001 to 0.01 | Cc1nnc2n1CCC2C(=O)Nc1ccc(C[C@@H]2CC[C@H]([C@H](O)c3ccccc3)N2)cc1 (single isomer, unassigned) [Example 125]
0.001 to 0.01 | Cc1cc(C(C)C(=O)Nc2ccc(C[C@@H]3CC[C@H]([C@H](O)c4ccccc4)N3)cc2)[nH]n1 (single isomer, unassigned) [Example 185]
0.001 to 0.01 | CC(C(=O)Nc1ccc(C[C@@H]2CC[C@H]([C@H](O)c3ccccc3)N2)cc1)c1nnc[nH]1 (single isomer, unassigned) [Example 168]
0.011 to 0.1 | CC(C(=O)Nc1ccc(C[C@@H]2CC[C@H]([C@H](O)c3ccccc3)N2)cc1)n1nncc1C(N)=O (single isomer, unassigned) [Example 198]
0.001 to 0.01 | Cc1noc2c1CCC2C(=O)Nc1ccc(C[C@@H]2CC[C@H]([C@H](O)c3ccccc3)N2)cc1 (single isomer, unassigned) [Example 141]
< 0.001 | C[C@@H](C(=O)Nc1ccc(C[C@@H]2CC[C@H]([C@H](O)c3ccccc3)N2)cc1)c1csc(N)n1 [Example 104]
< 0.001 | Nc1nc(C(CCF)C(=O)Nc2ccc(CC3CCC(C(O)c4ccccc4)N3)cc2)cs1 (centres unmarked) [Example 222]

same assay, conditions: Table 6; read-out: Human β3 Functional

EC50 [µM] | Structure (SMILES)
1 to 3 | Nc1nc2c(s1)CCCC2C(=O)Nc1ccc(CC2CCC(C(O)c3ccccc3)N2)cc1 (single isomer, unassigned) [Example 228]

same assay, conditions: Table 7; β3AR-cAMP; read-out: Human β3 Functional

EC50 [µM] | Structure (SMILES)
0.101 to 1 | O=S(=O)(Cc1ccncc1)Nc1ccc(C[C@@H]2CC[C@H]([C@H](O)c3ccccc3)N2)cc1 [Example 250]
0.101 to 1 | O=S(=O)(Nc1ccc(C[C@@H]2CC[C@H]([C@H](O)c3ccccc3)N2)cc1)c1cccc2ncccc12 [Example 238]
0.101 to 1 | O=S(=O)(Nc1ccc(C[C@@H]2CC[C@H]([C@H](O)c3ccccc3)N2)cc1)c1ccc(-n2cccn2)cc1 [Example 240]
0.101 to 1 | Cn1cnc(S(=O)(=O)Nc2ccc(C[C@@H]3CC[C@H]([C@H](O)c4ccccc4)N3)cc2)c1 [Example 246]
0.101 to 1 | O=S(=O)(Nc1ccc(C[C@@H]2CC[C@H]([C@H](O)c3ccccc3)N2)cc1)c1cccc2cccnc12 [Example 237]
0.101 to 1 | Cc1nccc(-c2cccc(S(=O)(=O)Nc3ccc(C[C@@H]4CC[C@H]([C@H](O)c5ccccc5)N4)cc3)c2)n1 [Example 243]
0.101 to 1 | O=S(=O)(Nc1ccc(C[C@@H]2CC[C@H]([C@H](O)c3ccccc3)N2)cc1)c1cccc2ccccc12 [Example 235]

same assay, conditions: Table 9; read-out: Human β^3 Functional

EC50 [µM] | Structure (SMILES)
0.001 to 0.01 | CC(NC(=O)c1cnccn1)C(=O)Nc1ccc(C[C@@H]2CC[C@H]([C@H](O)c3ccccc3)N2)cc1 (some centres unmarked) [Example 269]

same assay, conditions: Table 10; β3AR-cAMP; read-out: Human β3 Functional

EC50 [µM] | Structure (SMILES)
0.011 to 0.1 | O=C(Nc1ccc(C[C@@H]2CC[C@H]([C@H](O)c3cccc(F)c3)N2)cc1)[C@H]1CCc2scnc21 [Example 278]

same assay, conditions: Table 11; read-out: Human β3 Functional

EC50 [µM] | Structure (SMILES)
< 0.001 | Nc1nc2c(s1)CCC2C(=O)Nc1ccc(CC2CCC(C(O)c3ccc(F)cc3)N2)cc1 (single isomer, unassigned) [Example 283]
< 0.001 | CC(C(=O)Nc1ccc(CC2CCC(C(O)c3ccc(F)cc3)N2)cc1)c1cscn1 (single isomer, unassigned) [Example 286]
0.011 to 0.1 | Nc1nc2c(s1)CCC2C(=O)Nc1ccc(CC2CCC(C(O)c3ccc(F)cc3)N2)cc1 (single isomer, unassigned) [Example 282]

same assay, conditions: given as a range; cAMP, CHO cells; read-out: human β3 functional activity

EC50 [µM] | Structure (SMILES)
< 0.001 | Nc1nc2c(s1)CCC2C(=O)Nc1ccc(C[C@@H]2CC[C@H]([C@H](O)c3ccccc3)N2)cc1 (single isomer, unassigned) [Example 4]

same assay, conditions: human β3 functional activity, shown as ranges; Table 13; read-out: Human β3 Functional

EC50 [µM] | Structure (SMILES)
0.001 to 0.01 | O=C(Nc1ccc(CC2CCC(C(O)c3cccc(Cl)c3)N2)cc1)C1CCc2sc(F)nc21 (single isomer, unassigned) [Example 300]
0.001 to 0.01 | CC(C(=O)Nc1ccc(CC2CCC(C(O)c3cccc(Cl)c3)N2)cc1)c1cscn1 (single isomer, unassigned) [Example 302]

same assay, conditions: human β3 functional activity, shown as ranges; Table 14; read-out: Human β3 Functional

EC50 [µM] | Structure (SMILES)
0.001 to 0.01 | Nc1nc2c(s1)CCC2C(=O)Nc1ccc(CC2CCC(C(O)c3cccc(Cl)c3)N2)cc1 (single isomer, unassigned) [Example 311]
